Test results taken from ChEMBL document CHEMBL1142600, “Production of justicidin B, a cytotoxic arylnaphthalene lignan from genetically transformed root cultures of Linum leonii” (J Nat Prod, 2006).

Key:
Type in all cases: functional, cell-based
[1] = test system: LAMA-84; assay: Cytotoxicity against human LAMA-84 cells after 72 hrs by MTT assay; conditions: LAMA-84, 72 h
[2] = Cytotoxicity against human SKW3 cells after 72 hrs by MTT assay; conditions: SKW3, 72 h
[3] = test system: K562; assay: Cytotoxicity against human K-562 cells after 72 hrs by MTT assay; conditions: K562, 72 h

**Q.** With `COc1cc([C@@H]2c3cc4c(cc3[C@@H](O[C@@H]3O[C@@H]5CO[C@@H](C)O[C@H]5[C@H](O)[C@H]3O)[C@H]3COC(=O)[C@H]23)OCO4)cc(OC)c1O` [ETOPOSIDE] as the compound, how does the IC50 [1] read?
**A.** Its IC50 is 790 nM.

**Q.** What about the IC50 [2] of the same compound?
**A.** Its IC50 is 820 nM.

**Q.** And the IC50 [3]?
**A.** The IC50 was 1870 nM.
